{"source": "ChEMBL document CHEMBL1156743", "about": "“Design, synthesis, and biological evaluations of 2,5-diaryl-2,3-dihydro-1,3,4-oxadiazoline analogs of combretastatin-A4” (J Med Chem, 2010)", "key": {"MDA-MB-435 [1]": {"system": "MDA-MB-435", "assay": "Antiproliferative activity against human MDA-MB-435 cells after 48 hrs by SRB assay", "assay_type": "functional, cell-based", "conditions": "MDA-MB-435, 48 h"}, "A10 [2]": {"system": "A10", "assay": "Antiproliferative activity against rat A10 cells assessed as microtubule depolymerization after 18 to 24 hrs by indirect immunofluorescence technique", "assay_type": "functional, cell-based"}, "L1210": {"system": "L1210", "assay": "Antiproliferative activity against mouse L1210 cells after 72 hrs by MTT assay", "assay_type": "functional, cell-based", "conditions": "L1210, 72 h"}, "MDA-MB-435 [3]": {"system": "MDA-MB-435", "assay": "Ratio of EC50 for rat A10 cells to IC50 for human MDA-MB-435 cells", "assay_type": "functional"}, "[4]": {"assay": "Relative aqueous solubility at pH 7.4 by filter plate assay", "assay_type": "physicochemical", "conditions": "buffer"}, "HeLa [5]": {"system": "HeLa", "assay": "Antimitotic activity in human HeLa cells assessed as gamma-tubulin containing centrosomes at 0.5 uM after 18 hrs by indirect immunofluorescence technique", "assay_type": "functional, cell-based"}, "HeLa [6]": {"system": "HeLa", "assay": "Antimitotic activity in human HeLa cells assessed as multipolar mitotic spindles at 0.5 uM after 18 hrs by indirect immunofluorescence technique", "assay_type": "functional, cell-based"}, "HeLa [7]": {"system": "HeLa", "assay": "cells", "conditions": "Homo sapiens, 48 h", "description": "Antiproliferative activity against human HeLa cells after 48 hrs by SRB assay"}, "A10 [8]": {"system": "A10", "assay": "Antiproliferative activity against rat A10 cells assessed as microtubule depolymerization at 1 uM after 18 hrs by indirect immunofluorescence technique", "assay_type": "functional, cell-based"}, "HeLa [9]": {"system": "HeLa", "assay": "Antimitotic activity in human HeLa cells assessed as effect on DNA at 0.5 uM after 18 hrs by indirect immunofluorescence technique", "assay_type": "functional, cell-based"}, "HeLa [10]": {"system": "HeLa", "assay": "Antiproliferative activity against human HeLa cells expressing wild type beta3 tubulin after 48 hrs by SRB assay", "assay_type": "functional, cell-based"}, "MDA-MB-435 [11]": {"system": "MDA-MB-435", "assay": "Cell cycle arrest in human MDA-MB-435 cells assessed as accumulation at G2/M phase at 0.5 uM after 18 hrs by flow cytometry", "assay_type": "functional, cell-based"}, "SK-OV-3 [12]": {"system": "SK-OV-3", "assay": "Antiproliferative activity against human SKOV3 cells expressing adenoviral MDR1 after 48 hrs by SRB assay", "assay_type": "functional, cell-based", "conditions": "SK-OV-3, 48 h"}, "SK-OV-3 [13]": {"system": "SK-OV-3", "assay": "Antiproliferative activity against human SKOV3 cells after 48 hrs by SRB assay", "assay_type": "functional, cell-based", "conditions": "SK-OV-3, 48 h"}, "[14]": {"assay": "Antiproliferative activity against mouse B16F0 cells after 72 hrs by MTT assay", "assay_type": "functional"}}, "note": "Activity calls are given as the source filed them. The rule behind the calls is not given here.", "data": [{"smiles": "COc1cc(C2=NN(C(C)=O)C(c3cccc(Br)c3)O2)cc(OC)c1OC", "note": "(stereo unspecified)", "values": [{"measurement": "IC50", "setting": "MDA-MB-435 [1]", "value": 0.15, "unit": "µM"}, {"measurement": "EC50", "setting": "A10 [2]", "value": 1.5, "unit": "µM"}, {"measurement": "IC50", "setting": "L1210", "value": 0.6, "unit": "µM"}, {"measurement": "Ratio", "setting": "MDA-MB-435 [3]", "value": 10}, {"measurement": "solubility", "setting": "[4]", "value": 66, "unit": "µM"}]}, {"smiles": "COc1ccc(C2=NN(C(C)=O)C(c3ccc([N+](=O)[O-])cc3)O2)cc1", "note": "(stereo unspecified)", "values": [{"measurement": "IC50", "setting": "L1210", "value": 68, "unit": "µM"}]}, {"smiles": "COc1cc(C2=NN(C(C)=O)C(c3ccccc3)O2)cc(OC)c1OC", "note": "(stereo unspecified)", "values": [{"measurement": "IC50", "setting": "L1210", "value": 6.4, "unit": "µM"}]}, {"smiles": "COc1cc(C2=NN(C(C)=O)C(c3cccc([N+](=O)[O-])c3)O2)cc(OC)c1OC", "note": "(stereo unspecified)", "values": [{"measurement": "IC50", "setting": "L1210", "value": 39, "unit": "µM"}]}, {"smiles": "COc1ccc(C2=NN(C(C)=O)C(c3ccc(OC)cc3)O2)cc1", "note": "(stereo unspecified)", "values": [{"measurement": "IC50", "setting": "L1210", "value": "> 100", "unit": "µM"}]}, {"smiles": "COc1ccc(C2=NN(C(C)=O)C(c3ccccc3)O2)cc1", "note": "(stereo unspecified)", "values": [{"measurement": "IC50", "setting": "L1210", "value": "> 100", "unit": "µM"}]}, {"smiles": "COc1cc(C2=NN(C(C)=O)C(c3cc(OC)c(OC)c(OC)c3)O2)cc(OC)c1OC", "note": "(stereo unspecified)", "values": [{"measurement": "IC50", "setting": "L1210", "value": "> 100", "unit": "µM"}]}, {"smiles": "COc1ccccc1C1OC(c2cc(OC)c(OC)c(OC)c2)=NN1C(C)=O", "note": "(stereo unspecified)", "values": [{"measurement": "IC50", "setting": "L1210", "value": 48, "unit": "µM"}]}, {"smiles": "COc1ccc(C2=NN(C(C)=O)C(c3cccc(OC)c3)O2)cc1", "note": "(stereo unspecified)", "values": [{"measurement": "IC50", "setting": "L1210", "value": 41, "unit": "µM"}]}, {"smiles": "COc1ccc(C2=NN(C(C)=O)C(c3cc(OC)ccc3OC)O2)cc1", "note": "(stereo unspecified)", "values": [{"measurement": "IC50", "setting": "MDA-MB-435 [1]", "value": 0.2, "unit": "µM"}, {"measurement": "EC50", "setting": "A10 [2]", "value": 1.3, "unit": "µM"}, {"measurement": "IC50", "setting": "L1210", "value": 0.5, "unit": "µM"}, {"measurement": "Ratio", "setting": "MDA-MB-435 [3]", "value": 6.5}, {"measurement": "solubility", "setting": "[4]", "value": 259, "unit": "µM"}]}, {"smiles": "COc1cc(C2=NN(C(C)=O)C(c3ccc([N+](=O)[O-])cc3)O2)cc(OC)c1OC", "note": "(stereo unspecified)", "values": [{"measurement": "IC50", "setting": "L1210", "value": 4.2, "unit": "µM"}]}, {"smiles": "COc1ccc(C2OC(c3cc(OC)c(OC)c(OC)c3)=NN2C(C)=O)cc1[N+](=O)[O-]", "note": "(stereo unspecified)", "values": [{"measurement": "IC50", "setting": "L1210", "value": 58, "unit": "µM"}]}, {"smiles": "COc1ccc(C2OC(c3cc(OC)c(OC)c(OC)c3)=NN2C(C)=O)cc1", "note": "(stereo unspecified)", "values": [{"measurement": "IC50", "setting": "L1210", "value": 57, "unit": "µM"}]}, {"smiles": "COc1ccc(C2=NN(C(C)=O)C(c3cc(OC)c(OC)c(OC)c3)O2)cc1", "note": "(stereo unspecified)", "values": [{"measurement": "Activity", "setting": "HeLa [5]", "value": "Active"}, {"measurement": "IC50", "setting": "MDA-MB-435 [1]", "value": 0.14, "unit": "µM"}, {"measurement": "Activity", "setting": "HeLa [6]", "value": "Active"}, {"measurement": "EC50", "setting": "A10 [2]", "value": 0.5, "unit": "µM"}, {"measurement": "IC50", "setting": "HeLa [7]", "value": 0.23, "unit": "µM"}, {"measurement": "Activity", "setting": "A10 [8]", "value": "Active"}, {"measurement": "Activity", "setting": "HeLa [9]", "value": "Active"}, {"measurement": "IC50", "setting": "L1210", "value": 0.5, "unit": "µM"}, {"measurement": "IC50", "setting": "HeLa [10]", "value": 0.27, "unit": "µM"}, {"measurement": "Activity", "setting": "MDA-MB-435 [11]", "value": "Active"}, {"measurement": "Ratio", "setting": "MDA-MB-435 [3]", "value": 3.6}, {"measurement": "solubility", "setting": "[4]", "value": 257, "unit": "µM"}, {"measurement": "IC50", "setting": "SK-OV-3 [12]", "value": 0.45, "unit": "µM"}, {"measurement": "IC50", "setting": "SK-OV-3 [13]", "value": 0.34, "unit": "µM"}]}, {"smiles": "COc1ccc(/C=C\\c2cc(OC)c(OC)c(OC)c2)cc1O", "note": "[COMBRETASTATIN A4]", "values": [{"measurement": "EC50", "setting": "A10 [2]", "value": 0.007, "unit": "µM"}, {"measurement": "solubility", "setting": "[4]", "value": 350, "unit": "µM"}, {"measurement": "Activity", "setting": "[14]", "value": 0.003, "unit": "µM"}]}, {"smiles": "COc1ccc(C2=NN(C(C)=O)C(c3cccc(Br)c3)O2)cc1", "note": "(stereo unspecified)", "values": [{"measurement": "IC50", "setting": "L1210", "value": 37, "unit": "µM"}]}, {"smiles": "COc1ccc(OC)c(C2OC(c3cc(OC)c(OC)c(OC)c3)=NN2C(C)=O)c1", "note": "(stereo unspecified)", "values": [{"measurement": "IC50", "setting": "L1210", "value": 55, "unit": "µM"}]}, {"smiles": "COc1cccc(C2OC(c3cc(OC)c(OC)c(OC)c3)=NN2C(C)=O)c1", "note": "(stereo unspecified)", "values": [{"measurement": "IC50", "setting": "L1210", "value": 45, "unit": "µM"}]}, {"smiles": "COc1ccc(C2OC(c3cc(OC)c(OC)c(OC)c3)=NN2C(C)=O)cc1OC(C)=O", "note": "(stereo unspecified)", "values": [{"measurement": "IC50", "setting": "MDA-MB-435 [1]", "value": 3.3, "unit": "µM"}, {"measurement": "EC50", "setting": "A10 [2]", "value": 10.2, "unit": "µM"}, {"measurement": "IC50", "setting": "L1210", "value": 3.9, "unit": "µM"}, {"measurement": "Ratio", "setting": "MDA-MB-435 [3]", "value": 3.1}, {"measurement": "solubility", "setting": "[4]", "value": 112, "unit": "µM"}]}, {"smiles": "COc1ccc(C2=NN(C(C)=O)C(c3ccc(OC)c(OC(C)=O)c3)O2)cc1", "note": "(stereo unspecified)", "values": [{"measurement": "IC50", "setting": "L1210", "value": "> 100", "unit": "µM"}]}, {"smiles": "COc1ccc(C2=NN(C(C)=O)C(c3ccccc3OC)O2)cc1", "note": "(stereo unspecified)", "values": [{"measurement": "IC50", "setting": "L1210", "value": 5.8, "unit": "µM"}]}, {"smiles": "COc1ccc(C2=NN(C(C)=O)C(c3ccc(OC)c([N+](=O)[O-])c3)O2)cc1", "note": "(stereo unspecified)", "values": [{"measurement": "IC50", "setting": "L1210", "value": "> 100", "unit": "µM"}]}, {"smiles": "COc1ccc(C2=NN(C(C)=O)C(c3cccc([N+](=O)[O-])c3)O2)cc1", "note": "(stereo unspecified)", "values": [{"measurement": "IC50", "setting": "L1210", "value": 47, "unit": "µM"}]}, {"smiles": "COc1ccc(C2=NN(C(C)=O)C(c3cc(OC)cc(OC)c3)O2)cc1", "note": "(stereo unspecified)", "values": [{"measurement": "IC50", "setting": "MDA-MB-435 [1]", "value": 0.11, "unit": "µM"}, {"measurement": "EC50", "setting": "A10 [2]", "value": 1, "unit": "µM"}, {"measurement": "IC50", "setting": "L1210", "value": 0.5, "unit": "µM"}, {"measurement": "Ratio", "setting": "MDA-MB-435 [3]", "value": 9.1}, {"measurement": "solubility", "setting": "[4]", "value": 94, "unit": "µM"}]}, {"smiles": "COc1cc(OC)cc(C2OC(c3cc(OC)c(OC)c(OC)c3)=NN2C(C)=O)c1", "note": "(stereo unspecified)", "values": [{"measurement": "IC50", "setting": "L1210", "value": 5.9, "unit": "µM"}]}]}
